The subject of assay [1] is Staphylococcus aureus. Briefly: In vivo antibacterial activity against methicilin-resistant Staphylococcus aureus ATCC33591 infected in BALB/c mouse skin infection model assessed as normal morphology at 10 mg/kg administered daily for 4 days by H and E staining based analysis. The assay is classed as functional, organism-based. To be noted: time 4.0 day.
For assay [2], the system named is Staphylococcus aureus. Briefly: Antimicrobial activity against methicillin-susceptible Staphylococcus aureus ATCC25923 measured after 24 hrs by CLSI protocol based microdilution method. The assay is classed as functional.
Assay [3] addresses T1, Enoyl-[acyl-carrier-protein] reductase [NADPH] FabI (Staphylococcus aureus) (UniProt Q6GI75).
T1 sequence (whole entry): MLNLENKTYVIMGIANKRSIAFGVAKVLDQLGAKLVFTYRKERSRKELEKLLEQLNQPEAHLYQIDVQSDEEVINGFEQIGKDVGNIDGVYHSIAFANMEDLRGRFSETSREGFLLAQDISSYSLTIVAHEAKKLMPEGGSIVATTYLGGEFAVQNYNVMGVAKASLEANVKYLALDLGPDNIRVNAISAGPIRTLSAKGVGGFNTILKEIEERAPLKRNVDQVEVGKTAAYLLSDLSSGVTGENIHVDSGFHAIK
Briefly: Binding affinity to N-terminal his 6 tagged Staphylococcus aureus Fabi (1 to […] residues) expressed in Escherichia coli BL21 assessed as change in melting temperature at 80 uM incubated for 20 mins in presence of NADPH by differential scanning fluorescence assay.

In assay [4] the test system is Staphylococcus aureus. Briefly: Antimicrobial activity against […] Staphylococcus aureus ATCC33591 assessed as frequency of spontaneous resistance at 8 times MIC measured after 48 hrs by. The assay is classed as functional.
Assay [5] has as its system Staphylococcus aureus. Briefly: Antimicrobial activity against […] Staphylococcus aureus ATCC33591 measured after 24 hrs by CLSI protocol based microdilution method. The class given is functional.
Assay [6] deals with Staphylococcus aureus. Briefly: Antimicrobial activity against methicillin-susceptible Staphylococcus aureus ATCC29213 measured after 24 hrs by CLSI protocol based microdilution method. The assay is classed as functional.
The subject of assay [7] is Staphylococcus aureus. Kind of assay: Antimicrobial activity against […] Staphylococcus aureus USA300 measured after 24 hrs by CLSI protocol based microdilution method. The class given is functional.
Assay [8] concerns Staphylococcus aureus. Kind of assay: Antimicrobial activity against […] Staphylococcus aureus ATCC43300 measured after 24 hrs by CLSI protocol based microdilution method. The assay is classed as functional.
Assay [9] addresses T2, Enoyl-[acyl-carrier-protein] reductase [NADPH] FabI (Staphylococcus aureus, UniProt Q6GI75).
T2 sequence (Q6GI75 whole entry): T1 sequence (whole entry)
Kind of assay: Inhibition of N-terminal his 6 tagged Staphylococcus aureus Fabi (1 to […] residues) expressed in Escherichia coli BL21 incubated for 30 mins in presence of NADPH by fluorescence based microplate reader analysis.

For assay [10], the system named is Staphylococcus aureus. Briefly: Antimicrobial activity against […] Staphylococcus aureus NRS271 measured after 24 hrs by CLSI protocol based microdilution method. The assay is classed as functional.
The test system of assay [11] is Staphylococcus aureus. Kind of assay: Antimicrobial activity against […] Staphylococcus aureus ATCC33591 assessed as frequency of spontaneous resistance at 4 times MIC measured after 48 hrs by. The assay is classed as functional.
Assay [12] deals with T1, Enoyl-[acyl-carrier-protein] reductase [NADPH] FabI (Staphylococcus aureus). Kind of assay: Inhibition of N-terminal his 6 tagged Staphylococcus aureus Fabi (1 to […] residues) expressed in Escherichia coli BL21 at 1 uM incubated for 30 mins in presence of NADPH by fluorescence based microplate reader analysis relative to control.
In assay [13] the test system is Staphylococcus aureus. Briefly: In vivo antibacterial activity against methicilin-resistant Staphylococcus aureus ATCC33591 infected in BALB/c mouse skin infection model assessed as normal skin structure at 10 mg/kg administered daily for 4 days by H and E staining based analysis. The class given is functional, organism-based. To be noted: time 4.0 day.
The test system of assay [14] is Staphylococcus aureus. Briefly: In vivo antibacterial activity against methicilin-resistant Staphylococcus aureus ATCC33591 infected in BALB/c mouse skin infection model assessed as reduction in skin lesions at 10 mg/kg administered daily for 4 days (reference value: 48.3 mm2). The assay is classed as functional. To be noted: time 4 day.
Assay [15] relates to Staphylococcus aureus. Briefly: In vivo antibacterial activity against methicilin-resistant Staphylococcus aureus ATCC33591 infected in BALB/c mouse skin infection model assessed as log reduction in bacterial count at 10 mg/kg administered daily for 4 days. The class given is functional. As to conditions: time 4 day.
The subject of assay [16] is Staphylococcus aureus. Briefly: Antimicrobial activity against […] Staphylococcus aureus ATCC33591 assessed as frequency of spontaneous resistance at 16 times MIC measured after 48 hrs by. The assay is classed as functional.

Structures are written as SMILES. In brackets after ≈: the same amount, converted by molar mass. Activity calls are given as the source filed them. The calls are words filed in the database; no cut-off is given here.

As to `Cc1c(Br)cccc1N1C[C@@H](c2nc3ccccc3n2C)CC1=O`, the result in the assay on Staphylococcus aureus [1] and in the assay on Staphylococcus aureus [13] was Active. For the same compound, the MIC was 0.5 µg/mL (≈ 1.3 µM) against Staphylococcus aureus [2]; 0.25 µg/mL (≈ 0.651 µM) with Staphylococcus aureus [5]; 0.5 µg/mL (≈ 1.3 µM) in the assay on Staphylococcus aureus [6]; 0.5 µg/mL (≈ 1.3 µM) against Staphylococcus aureus [7]; 0.5 µg/mL (≈ 1.3 µM) against Staphylococcus aureus [8]; 1 µg/mL (≈ 2.6 µM) in the assay with Staphylococcus aureus [10]. In addition, the ΔTm in [3] worked out at 14.3 °C. The Activity with Staphylococcus aureus [4] is recorded as <2.6 10^-10No_unit; with Staphylococcus aureus [11], 3.8 10^-10No_unit; with Staphylococcus aureus [14], 16.1 mm2; with Staphylococcus aureus [16], <2.6 10^-10No_unit. Moreover, in assay [9], the IC50 is 94 nM. Moreover, the inhibition in assay [12] was greater than 85%. The “log(activity)” value in the assay with Staphylococcus aureus [15] is 6.8.
